Patent US8148431B2, “Osteogenesis promoter containing β-cryptoxanthin as the active ingredient” (Kemin Health, L.C., priority 2002, dated 2012)
Marks after values point to notes of the source that are not given here.

Key:
[1] = system: rats, femoral metaphysis tissue; test: Oral administration to rats: bone DNA level in metaphysis tissue; type: in vivo, Wistar male rats; conditions: for Bone DNA level: metaphysis tissue
Method: (§1) DNA level was determined as an index of the number of cells in the bone tissue. After the culture in an incubator, the tissue pieces were washed with 0.25 M sucrose solution and then the wet weight of them was determined. They were pulverized in 4 ml of 0.1 N NaOH. After the osmosis at 4° C. for 24 hours, the liquid mixture was centrifuged. The supernatant was taken as the sample and determined by a method of Ceriotti et al. (J. Biol. Chem., 241; 34-77, 1951). Namely, 1 ml of concentrated hydrochloric acid and 1 ml of 0.04% indole solution were added to 2 ml of the sample and then the resultant mixture was heated to 100° C. in boiling water. After quenching followed by the extraction with 4 ml of chloroform, the chloroform layer was taken to determine bone DNA level with a spectrophotometer (490 nm).
(§2) A solution of β-cryptoxanthin in corn oil having one of three kinds of concentration (10, 25 and 50 μg/ml corn oil) was orally administered to rats (Wistar male rats; 4 to 5 weeks old) in an amount/100 g body weight with a probe once a day for 7 days. The rats were sacrificed 24 hours after the final administration. The femurs were excised. The muscles, etc. were taken out and each femur was divided into diaphysis and metaphysis to determine the bone components.
(§3) Tests were conducted to examine whether the bone components are increased by the oral administration of β-cryptoxanthin to rats or not. β-cryptoxanthin was administered for 7 days (10, 25 or 50 μg/100 g body weight/day) and then calcium level in the bone tissue, determination of alkaline phosphatase activity (enzyme for the acceleration of the calcification of bones) and the amount of deoxyribonucleic acid (DNA: index of the number of the cells in the bone tissue) were determined by the same methods as those in Example 1. In each test group, the determination was conducted 6 times and the results were represented by the average value and the standard error. The significant difference was determined by Student's t-test. The result was compared with that of the control. When P value was not higher than 0.01 (*) as compared with the control, the results were statistically significant.

[2] = system: rats, femoral diaphysis tissue; test: Oral administration to rats: bone alkaline phosphatase activity in diaphysis tissue; type: in vivo, Wistar male rats; conditions: for Bone alkaline phosphatase activity: diaphysis tissue
Method: (§4) The expression level of alkaline phosphatase, which is the most important enzyme for the acceleration of the calcification of bones, was examined. The tissue pieces cultured in the incubator were washed in 0.25 M sucrose solution, then pulverized in 3 ml of 65 mM barbital buffer (pH 7-4) and treated with ultrasonic waves. The resultant liquid was centrifuged. The supernatant, as the enzyme solution, was determined by a method of Walter ad Schutt in Method of Enzymatic Analysis, Vol. 1-2, p. 856, Academic Press, New York, 1965). Namely, this method was carried out as follows: p-nitrophenylphosphoric acid was used as the substrate. 0.05 ml of the enzyme solution was added to 2 ml of diethanolamine buffer (pH 9.8). After the incubation at 37° C. for 30 minutes, 10 ml of 0.05 N NaOH was added to the mixture. The absorbance (405 nm) was determined with a spectrophotometer to determine bone alkaline phosphatase activity of a bone remedy or a compound known to be effective for the bones.
as §2, §3

[3] = system: metaphysis tissue of the femur (cancellous bone); test: Bone DNA level in cultured femoral metaphysis tissue pieces; type: cell-based, Wistar male rats; conditions: for Bone DNA level: metaphysis tissue, mean ± SE
Method: (§5) The femurs were extracted from rats (Wistar male rats; 4 to 5 weeks old) (purchased from Japan SLC Co., Ltd. and fed with solid Oriental yeast (MF)) under anesthesia with ether under a germfree condition. The femurs were each washed with 0.25 M sucrose solution, and then divided into the diaphysis (cortical bone) and metaphysis (cancellous bone). The bone tissue pieces were cultured in a culture medium (Dulbecco's modified culture medium containing 5% of glucose; serum-free medium) containing. β-cryptoxanthin, etc. at […] in an incubator filled with 5% CO2-95% air for 48 hours. β-cryptoxanthin used was “β-cryptoxanthin” of Extrasynthase Co., cycloheximide used was “Cycloheximide” of Sigma Co. Ltd., β-carotene was “β-carotene” of Sigma ? , xanthine was “Xanthine” of Sigma Co, Ltd., parathormone was “Parathormone” of Sigma Co. Ltd. and prostaglandin E2 was “Prostaglandin E2” of Sigma Co. Ltd. In the control, only the culture medium was used without β-cryptoxanthin or the like.
as §1
(§6) The bone component-increasing effect of β-cryptoxanthin was examined. The diaphysis and metaphysis tissue of the femur was cultured in the above-described culture medium containing β-cryptoxanthin ([…]) for 48 hours. Calcium level in the bone tissue, alkaline phosphatase activity (enzyme for accelerating the bone calcification) and the amount of deoxyribonucleic acid (DNA; index of number of cells in the bone tissue) were determined by the same methods as in Example 1. In each test group, the determination vas conducted 6 to 8 times and the results were represented by the average value and the standard error. The significant difference was determined by Student's t-test. The result was compared with that of the control. When P value was not higher than 0.01 (**) or not higher than 0.05 (*), the results were statistically significant.

[4] = system: rats, femoral metaphysis tissue; test: Oral administration to rats: bone alkaline phosphatase activity in metaphysis tissue; type: in vivo, Wistar male rats; conditions: for Bone alkaline phosphatase activity: metaphysis tissue
Method: as §4, §2, §3

[5] = system: rats, femoral diaphysis tissue; test: Oral administration to rats: bone calcium level in diaphysis tissue; type: in vivo, Wistar male rats; conditions: for Bone calcium level: diaphysis tissue
Method: (§7) Bone calcium level in the bone tissue was determined. After the culture in the incubator, the tissue pieces were washed with 0.25 M sucrose solution and dried and then the bone was weighed. Then concentrated nitric acid was added to the tissue pieces. After the incineration at 120° C. for 12 hours, the bone calcium level was determined with an atomic absorption photometer (“Perkin-Elmer 303” of Perkin-Elmer Co.).
as §2, §3

[6] = system: diaphysis tissue of the femur (cortical bone); test: Bone calcium level in cultured femoral diaphysis tissue pieces; type: cell-based, Wistar male rats; conditions: for Bone calcium level: diaphysis tissue, mean ± SE
Method: as §5, §7, §6

[7] = 10, 25 or 50 μg/100 g body weight/day, 7 days
[8] = oral 10 μg/100 g body weight/day for 7 days
[9] = oral 25 μg/100 g body weight/day for 7 days
[10] = oral 50 μg/100 g body weight/day for 7 days
[11] = Table 2 (protein synthesis inhibitor experiment), 10^−6 M (each agent), n=6
[12] = β-cryptoxanthin 10^−6 M with cycloheximide

CC1=C(/C=C/C(C)=C/C=C/C(C)=C/C=C/C=C(C)/C=C/C=C(C)/C=C/C2=C(C)C[C@@H](O)CC2(C)C)C(C)(C)CCC1 [β-cryptoxanthin]
Effect on DNA in the bone tissue, metaphysis, after oral administration (in words) [1, 7]: significantly increased
Bone DNA level [1, 8]: 4.10 ± 0.24* mg/g bone wet weight
Bone DNA level [1, 9]: 4.25 ± 0.21* mg/g bone wet weight
Bone DNA level [1, 10]: 4.01 ± 0.18* mg/g bone wet weight
Effect on alkali phosphatase activity in the diaphysis tissue after oral administration (in words) [2, 7]: significantly increased
Bone alkaline phosphatase activity [2, 8]: 2.38 ± 0.019* μmol/min/mg protein
Bone alkaline phosphatase activity [2, 9]: 2.35 ± 0.021* μmol/min/mg protein
Bone alkaline phosphatase activity [2, 10]: 1.85 ± 0.025* μmol/min/mg protein
Effect on DNA level in the metaphysis tissue (in words) ([3]; 10^−7 to 10^−5 M, 48 h culture, vs control): significantly increased
Bone DNA level [3, 11]: 5.401 ± 0.188* mg/g bone wet weight
Bone DNA level ([3]; 10^−5 M, 48 h culture): 5.584 ± 0.530** mg/g bone wet weight
Bone DNA level ([3]; 10^−6 M, 48 h culture): 5.359 ± 0.207** mg/g bone wet weight
Bone DNA level ([3]; 10^−7 M, 48 h culture): 4.170 ± 0.057** mg/g bone wet weight
Bone DNA level ([3]; 10^−8 M, 48 h culture): 3.276 ± 0.207 mg/g bone wet weight
Bone DNA level in metaphysis tissue increased by β-cryptoxanthin: change in the presence of cycloheximide (in words) [3, 12]: significantly lowered
Effect on alkali phosphatase activity in the metaphysis tissue after oral administration (in words) [4, 7]: significantly increased
Bone alkaline phosphatase activity [4, 8]: 2.21 ± 0.023* μmol/min/mg protein
Bone alkaline phosphatase activity [4, 9]: 2.545 ± 0.029* μmol/min/mg protein
Bone alkaline phosphatase activity [4, 10]: 1.92 ± 0.015* μmol/min/mg protein
Effect on calcium level in the diaphysis tissue after oral administration (in words) [5, 7]: significantly increased
Bone calcium level [5, 8]: 232.8 ± 3.00* mg/g dry weight
Bone calcium level [5, 9]: 248.3 ± 5.10* mg/g dry weight
Bone calcium level [5, 10]: 247.5 ± 4.20* mg/g dry weight
Effect on calcium level in the diaphysis tissue (in words) ([6]; 10^−8 to 10^−5 M, 48 h culture, vs control): significant increase
Bone calcium level [6, 11]: 275.1 ± 4.50* mg/g dry weight
Bone calcium level ([6]; 10^−5 M, 48 h culture): 291.7 ± 2.29** mg/g dry weight
Bone calcium level ([6]; 10^−6 M, 48 h culture): 272.2 ± 3.15** mg/g dry weight
Bone calcium level ([6]; 10^−7 M, 48 h culture): 269.9 ± 6.26** mg/g dry weight
Bone calcium level ([6]; 10^−8 M, 48 h culture): 249.6 ± 3.33** mg/g dry weight
Calcium level in diaphysis tissue increased by β-cryptoxanthin: change in the presence of cycloheximide (in words) [6, 12]: significantly lowered
